Tests used:
MOLT-4 = test: Cytotoxicity against human MOLT4 cells after 48 hrs by sulforhodamine B assay; type: functional; conditions: MOLT-4, 48 h
M14 = test: Cytotoxicity against human M14 cells after 48 hrs by sulforhodamine B assay; type: functional; conditions: M14, 48 h
786-0 = test: Cytotoxicity against human 786-0 cells after 48 hrs by sulforhodamine B assay; type: functional; conditions: 786-0, 48 h
[1] = target: Signal transducer and activator of transcription 1-alpha/beta (Homo sapiens, UniProt P42224); test: Inhibition of SH2 domain of STAT1 (unknown origin) using FITC-GpYDKPHVL as substrate preincubated for 15 mins before substrate addition measured after 90 mins by alphascreen based assay
[2] = target: Growth factor receptor-bound protein 2 (Homo sapiens, UniProt P62993); test: Inhibition of SH2 domain of GRB2 (unknown origin) using FITC-PSpYVNVQN as substrate preincubated for 15 mins before substrate addition measured after 90 mins by alphascreen based assay
NCI-H460 = test: Cytotoxicity against human NCI-H460 cells after 48 hrs by sulforhodamine B assay; type: functional; conditions: NCI-H460, 48 h
HL-60(TB) = test: Cytotoxicity against human HL-60(TB) cells after 48 hrs by sulforhodamine B assay; type: functional; conditions: HL-60, 48 h
T47D = test: Cytotoxicity against human T47D cells after 48 hrs by sulforhodamine B assay; type: functional
SF-539 = test: Cytotoxicity against human SF539 cells after 48 hrs by sulforhodamine B assay; type: functional; conditions: SF-539, 48 h
[3] = Cytotoxicity against human NCI-ADR-RES cells after 48 hrs by sulforhodamine B assay; type: functional
[4] = target: Signal transducer and activator of transcription 3 (Homo sapiens, UniProt P40763); test: Inhibition of STAT3 in human HCT116 cells at 5 uM after 24 hrs by dual-light luciferase reporter gene assay; type: cell-based; conditions: HCT-116
SF-268 = test: Cytotoxicity against human SF268 cells after 48 hrs by sulforhodamine B assay; type: functional; conditions: SF-268, 48 h
BT-549 = test: Cytotoxicity against human BT549 cells after 48 hrs by sulforhodamine B assay; type: functional; conditions: BT-549, 48 h
NCI-H322M = test: Cytotoxicity against human NCI-H322M cells after 48 hrs by sulforhodamine B assay; type: functional
SF-295 = test: Cytotoxicity against human SF295 cells after 48 hrs by sulforhodamine B assay; type: functional; conditions: SF-295, 48 h
NCI-H23 = test: Cytotoxicity against human NCI-H23 cells after 48 hrs by sulforhodamine B assay; type: functional; conditions: NCI-H23, 48 h
TK-10 = test: Cytotoxicity against human TK10 cells after 48 hrs by sulforhodamine B assay; type: functional; conditions: TK-10, 48 h
COLO 205 = test: Cytotoxicity against human COLO205 cells after 48 hrs by sulforhodamine B assay; type: functional; conditions: COLO 205, 48 h
[5] = Cytotoxicity against human OVCAR5 cells after 48 hrs by sulforhodamine B assay; type: functional; conditions: OVCAR-5, 48 h
SNB-19 = test: Cytotoxicity against human SNB19 cells after 48 hrs by sulforhodamine B assay; type: functional; conditions: SNB-19, 48 h
MDA-MB-468 = test: Cytotoxicity against human MDA-MB-468 cells after 48 hrs by sulforhodamine B assay; type: functional; conditions: MDA-MB-468, 48 h
U-251 = test: Cytotoxicity against human U251 cells after 48 hrs by sulforhodamine B assay; type: functional; conditions: U-251, 48 h
[6] = read-out: LC50 (the source's name)
[7] = read-out: pLC50 (the source's name) (converted)

Chain of Growth factor receptor-bound protein 2 (P62993 whole entry, the tested form may be a part): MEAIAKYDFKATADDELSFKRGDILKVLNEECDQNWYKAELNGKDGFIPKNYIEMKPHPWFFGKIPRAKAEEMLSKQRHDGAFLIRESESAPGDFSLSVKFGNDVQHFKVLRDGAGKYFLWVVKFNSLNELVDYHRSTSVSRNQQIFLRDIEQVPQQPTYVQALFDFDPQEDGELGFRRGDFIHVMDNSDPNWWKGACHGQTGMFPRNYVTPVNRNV
Chain of Signal transducer and activator of transcription 3 (P40763 whole entry): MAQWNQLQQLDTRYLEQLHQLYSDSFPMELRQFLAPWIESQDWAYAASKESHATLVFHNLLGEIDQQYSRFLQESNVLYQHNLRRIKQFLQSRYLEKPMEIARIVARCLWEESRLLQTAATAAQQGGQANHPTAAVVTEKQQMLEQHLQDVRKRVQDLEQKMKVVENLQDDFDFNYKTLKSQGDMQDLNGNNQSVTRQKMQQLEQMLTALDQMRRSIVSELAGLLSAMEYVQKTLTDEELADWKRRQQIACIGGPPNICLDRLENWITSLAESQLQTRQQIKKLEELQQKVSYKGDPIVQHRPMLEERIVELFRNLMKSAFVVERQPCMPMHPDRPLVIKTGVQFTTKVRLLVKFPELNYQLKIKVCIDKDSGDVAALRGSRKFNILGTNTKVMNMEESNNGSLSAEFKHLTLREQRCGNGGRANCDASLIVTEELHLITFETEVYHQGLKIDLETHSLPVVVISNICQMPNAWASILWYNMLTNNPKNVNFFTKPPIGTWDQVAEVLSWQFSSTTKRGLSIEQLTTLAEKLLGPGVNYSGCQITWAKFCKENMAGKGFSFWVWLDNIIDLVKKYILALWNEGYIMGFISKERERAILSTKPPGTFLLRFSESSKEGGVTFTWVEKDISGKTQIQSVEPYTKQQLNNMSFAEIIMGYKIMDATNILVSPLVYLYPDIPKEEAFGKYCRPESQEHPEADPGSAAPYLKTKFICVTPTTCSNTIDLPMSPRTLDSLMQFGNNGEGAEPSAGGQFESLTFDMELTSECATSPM
Chain of Signal transducer and activator of transcription 1-alpha/beta (P42224 whole entry, the tested form may be a part): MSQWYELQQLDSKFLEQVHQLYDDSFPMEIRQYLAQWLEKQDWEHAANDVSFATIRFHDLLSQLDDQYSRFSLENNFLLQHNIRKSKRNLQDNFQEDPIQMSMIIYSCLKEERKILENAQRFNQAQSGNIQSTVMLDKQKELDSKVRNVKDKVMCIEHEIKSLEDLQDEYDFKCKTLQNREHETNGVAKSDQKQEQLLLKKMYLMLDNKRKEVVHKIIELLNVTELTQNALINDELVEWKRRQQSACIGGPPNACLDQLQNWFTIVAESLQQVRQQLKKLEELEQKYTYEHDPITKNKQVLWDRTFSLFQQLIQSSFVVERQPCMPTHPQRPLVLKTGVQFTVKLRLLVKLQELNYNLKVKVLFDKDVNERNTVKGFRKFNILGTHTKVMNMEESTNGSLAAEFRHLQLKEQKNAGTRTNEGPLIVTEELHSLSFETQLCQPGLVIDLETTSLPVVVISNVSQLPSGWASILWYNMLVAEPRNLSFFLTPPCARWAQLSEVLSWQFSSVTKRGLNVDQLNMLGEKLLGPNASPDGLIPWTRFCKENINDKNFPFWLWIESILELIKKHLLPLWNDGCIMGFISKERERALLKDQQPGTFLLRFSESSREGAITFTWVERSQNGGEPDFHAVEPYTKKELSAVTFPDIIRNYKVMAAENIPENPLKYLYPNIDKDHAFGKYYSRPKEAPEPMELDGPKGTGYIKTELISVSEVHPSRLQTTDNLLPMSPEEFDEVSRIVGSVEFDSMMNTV

In the case of `O=C(Nc1nonc1-c1ccc(Cl)cc1)c1ccc(C(F)(F)F)cc1`, the GI50 (MOLT-4; read-out: GI50) is reported as 1.67 µM, the CC50 (MOLT-4; [6]) is reported as greater than 100 µM and the TGI (MOLT-4; read-out: TGI) is reported as 6.05 µM. It also gave a GI50 (MOLT-4; read-out: pGI50 (converted)) of 1.66 µM, a CC50 (MOLT-4; [7]) greater than 100 µM and a TGI (MOLT-4; read-out: pTGI (converted)) of 6.03 µM. It also gave a GI50 (M14; read-out: GI50) of 2.04 µM, a CC50 (M14; [6]) greater than 100 µM and a TGI (M14; read-out: TGI) greater than 100 µM. It also gave a GI50 (M14; read-out: pGI50 (converted)) of 2.04 µM, a CC50 (M14; [7]) greater than 100 µM and a TGI (M14; read-out: pTGI) greater than 100 µM. The GI50 (786-0; read-out: GI50) was 1.98 µM, the LC50 (786-0; read-out: LC50) was greater than 100 µM and the TGI (786-0; read-out: TGI) was 5.19 µM. It also gave a GI50 (786-0; read-out: pGI50 (converted)) of 2 µM, an LC50 (786-0; read-out: pLC50 (converted)) greater than 100 µM and a TGI (786-0; read-out: pTGI) of 5.25 µM. It also gave an IC50 [1] of 7.2 µM, an IC50 [2] greater than 100 µM and a GI50 (NCI-H460; read-out: GI50) of 0.629 µM. The CC50 (NCI-H460; [6]) was greater than 100 µM, the GI50 (NCI-H460; read-out: pGI50 (converted)) was 0.631 µM and the CC50 (NCI-H460; [7]) was greater than 100 µM. It also gave a GI50 (HL-60(TB); read-out: GI50) of 0.546 µM, a CC50 (HL-60(TB); [6]) greater than 100 µM and a TGI (HL-60(TB); read-out: TGI) of 2.85 µM. The GI50 (HL-60(TB); read-out: pGI50 (converted)) was 0.55 µM, the CC50 (HL-60(TB); [7]) was greater than 100 µM and the TGI (HL-60(TB); read-out: pTGI (converted)) was 2.88 µM. For the same molecule, the GI50 (T47D; read-out: GI50) was 3.13 µM, the CC50 (T47D; [6]) was greater than 100 µM and the TGI (T47D; read-out: TGI) was greater than 100 µM. It also gave a GI50 (T47D; read-out: pGI50 (converted)) of 3.16 µM, a CC50 (T47D; [7]) greater than 100 µM and a TGI (T47D; read-out: pTGI) greater than 100 µM. It also gave a GI50 (SF-539; read-out: GI50) of 3.68 µM, a CC50 (SF-539; [6]) greater than 100 µM and a TGI (SF-539; read-out: TGI) of 17.1 µM. For the same molecule, the GI50 (SF-539; read-out: pGI50 (converted)) was 3.72 µM, the CC50 (SF-539; [7]) was greater than 100 µM and the TGI (SF-539; read-out: pTGI (converted)) was 17 µM. The GI50 ([3]; read-out: GI50) was 2.66 µM, the CC50 [3, 6] was greater than 100 µM and the GI50 ([3]; read-out: pGI50 (converted)) was 2.63 µM. The CC50 [3, 7] was greater than 100 µM, the inhibition [4] was 20% and the GI50 (SF-268; read-out: GI50) was 1.81 µM. For the same molecule, the LC50 (SF-268; read-out: LC50) was greater than 100 µM, the TGI (SF-268; read-out: TGI) was greater than 100 µM and the GI50 (SF-268; read-out: pGI50 (converted)) was 1.82 µM. It also gave an LC50 (SF-268; read-out: pLC50 (converted)) greater than 100 µM, a TGI (SF-268; read-out: pTGI) greater than 100 µM and a GI50 (BT-549; read-out: GI50) of 2.22 µM. For the same molecule, the CC50 (BT-549; [6]) was greater than 100 µM, the TGI (BT-549; read-out: TGI) was 7.66 µM and the GI50 (BT-549; read-out: pGI50 (converted)) was 2.24 µM. It also gave a CC50 (BT-549; [7]) greater than 100 µM, a TGI (BT-549; read-out: pTGI (converted)) of 7.59 µM and a GI50 (NCI-H322M; read-out: GI50) of 1.78 µM. For the same molecule, the CC50 (NCI-H322M; [6]) was greater than 100 µM, the TGI (NCI-H322M; read-out: TGI) was greater than 100 µM and the GI50 (NCI-H322M; read-out: pGI50 (converted)) was 1.78 µM. It also gave a CC50 (NCI-H322M; [7]) greater than 100 µM, a TGI (NCI-H322M; read-out: pTGI) greater than 100 µM and a GI50 (SF-295; read-out: GI50) of 1.02 µM. For the same molecule, the CC50 (SF-295; [6]) was 43.4 µM, the TGI (SF-295; read-out: TGI) was 3.72 µM and the GI50 (SF-295; read-out: pGI50 (converted)) was 1.02 µM. It also gave a CC50 (SF-295; [7]) greater than 100 µM, a TGI (SF-295; read-out: pTGI (converted)) of 3.72 µM and a GI50 (NCI-H23; read-out: GI50) of 1.89 µM. The CC50 (NCI-H23; [6]) was greater than 100 µM, the TGI (NCI-H23; read-out: TGI) was 7.94 µM and the GI50 (NCI-H23; read-out: pGI50 (converted)) was 1.91 µM. The CC50 (NCI-H23; [7]) was greater than 100 µM, the TGI (NCI-H23; read-out: pTGI (converted)) was 7.94 µM and the GI50 (TK-10; read-out: GI50) was 6.75 µM. It also gave a CC50 (TK-10; [6]) greater than 100 µM, a TGI (TK-10; read-out: TGI) greater than 100 µM and a GI50 (TK-10; read-out: pGI50 (converted)) of 6.76 µM. For the same molecule, the CC50 (TK-10; [7]) was greater than 100 µM, the TGI (TK-10; read-out: pTGI) was greater than 100 µM and the GI50 (COLO 205; read-out: GI50) was 3.8 µM. It also gave a CC50 (COLO 205; [6]) of 41.3 µM, a TGI (COLO 205; read-out: TGI) of 12 µM and a GI50 (COLO 205; read-out: pGI50 (converted)) of 3.8 µM. For the same molecule, the CC50 (COLO 205; [7]) was 41.7 µM, the TGI (COLO 205; read-out: pTGI (converted)) was 12 µM and the GI50 ([5]; read-out: GI50) was 3.98 µM. For the same molecule, the LC50 ([5]; read-out: LC50) was greater than 100 µM, the TGI ([5]; read-out: TGI) was 96.3 µM and the GI50 ([5]; read-out: pGI50 (converted)) was 3.98 µM. It also gave an LC50 ([5]; read-out: pLC50 (converted)) greater than 100 µM, a TGI ([5]; read-out: pTGI (converted)) of 95.5 µM and a GI50 (SNB-19; read-out: GI50) of 3.38 µM. The CC50 (SNB-19; [6]) was greater than 100 µM, the TGI (SNB-19; read-out: TGI) was greater than 100 µM and the GI50 (SNB-19; read-out: pGI50 (converted)) was 3.39 µM. It also gave a CC50 (SNB-19; [7]) greater than 100 µM, a TGI (SNB-19; read-out: pTGI) greater than 100 µM and a GI50 (MDA-MB-468; read-out: GI50) of 3.36 µM. The LC50 (MDA-MB-468; read-out: LC50) was greater than 100 µM, the TGI (MDA-MB-468; read-out: TGI) was 27 µM and the GI50 (MDA-MB-468; read-out: pGI50 (converted)) was 3.39 µM. The LC50 (MDA-MB-468; read-out: pLC50 (converted)) was greater than 100 µM, the TGI (MDA-MB-468; read-out: pTGI (converted)) was 26.9 µM and the GI50 (U-251; read-out: GI50) was 2.19 µM. The LC50 (U-251; read-out: LC50) was greater than 100 µM, the TGI (U-251; read-out: TGI) was greater than 100 µM and the GI50 (U-251; read-out: pGI50 (converted)) was 2.19 µM. The LC50 (U-251; read-out: pLC50 (converted)) was greater than 100 µM and the TGI (U-251; read-out: pTGI) was greater than 100 µM.

Source: ChEMBL document CHEMBL3217756, “Biological and computational evaluation of an oxadiazole derivative (MD77) as a new lead for direct STAT3 inhibitors” (Medchemcomm, 2012)
